Source: ChEMBL document CHEMBL5537112, “Emerging opportunities to treat idiopathic pulmonary fibrosis: Design, discovery, and optimizations of small-molecule drugs targeting fibrogenic pathways” (Eur J Med Chem, 2023)
One block for each compound: values may come before it.

Assays:
[1] = target: T1, Type-1 angiotensin II receptor (Homo sapiens, UniProt P30556); assay: Binding affinity to AT1R (unknown origin) assessed as inhibition constant
T1 sequence (P30556 whole entry): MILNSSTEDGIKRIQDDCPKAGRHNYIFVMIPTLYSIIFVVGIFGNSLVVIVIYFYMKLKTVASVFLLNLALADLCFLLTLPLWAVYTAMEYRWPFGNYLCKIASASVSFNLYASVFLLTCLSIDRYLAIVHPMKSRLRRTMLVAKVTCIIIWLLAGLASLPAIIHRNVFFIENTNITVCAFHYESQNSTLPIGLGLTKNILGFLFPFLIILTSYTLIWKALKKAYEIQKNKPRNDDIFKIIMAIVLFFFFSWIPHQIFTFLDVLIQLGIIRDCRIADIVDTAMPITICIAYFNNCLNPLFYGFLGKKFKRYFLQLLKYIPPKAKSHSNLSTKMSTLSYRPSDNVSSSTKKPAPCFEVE

[2] = target: Sphingosine 1-phosphate receptor 2 (Homo sapiens, UniProt O95136); assay: Agonist activity at S1P2 (unknown origin) expressed in CHO cells assessed as Ca2+ activation; type: functional, cell-based
Chain of Sphingosine 1-phosphate receptor 2 (O95136 whole entry, canonical isoform): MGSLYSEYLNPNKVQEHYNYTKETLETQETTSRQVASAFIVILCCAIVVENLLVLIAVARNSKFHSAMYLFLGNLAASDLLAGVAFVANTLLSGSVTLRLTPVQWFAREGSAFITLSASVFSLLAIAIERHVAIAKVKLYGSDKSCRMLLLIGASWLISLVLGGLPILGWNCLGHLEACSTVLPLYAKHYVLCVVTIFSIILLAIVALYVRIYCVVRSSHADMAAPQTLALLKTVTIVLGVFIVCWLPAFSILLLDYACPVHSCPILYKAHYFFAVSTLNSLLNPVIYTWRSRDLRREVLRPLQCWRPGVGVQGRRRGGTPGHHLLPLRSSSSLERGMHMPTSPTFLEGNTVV

[3] = target: Phosphatidylinositol 4,5-bisphosphate 3-kinase catalytic subunit alpha isoform (Homo sapiens, UniProt P42336); assay: Inhibition of PI3Kalpha (unknown origin) by kinase profiling assay
Chain of Phosphatidylinositol 4,5-bisphosphate 3-kinase catalytic subunit alpha isoform (P42336 whole entry, canonical isoform): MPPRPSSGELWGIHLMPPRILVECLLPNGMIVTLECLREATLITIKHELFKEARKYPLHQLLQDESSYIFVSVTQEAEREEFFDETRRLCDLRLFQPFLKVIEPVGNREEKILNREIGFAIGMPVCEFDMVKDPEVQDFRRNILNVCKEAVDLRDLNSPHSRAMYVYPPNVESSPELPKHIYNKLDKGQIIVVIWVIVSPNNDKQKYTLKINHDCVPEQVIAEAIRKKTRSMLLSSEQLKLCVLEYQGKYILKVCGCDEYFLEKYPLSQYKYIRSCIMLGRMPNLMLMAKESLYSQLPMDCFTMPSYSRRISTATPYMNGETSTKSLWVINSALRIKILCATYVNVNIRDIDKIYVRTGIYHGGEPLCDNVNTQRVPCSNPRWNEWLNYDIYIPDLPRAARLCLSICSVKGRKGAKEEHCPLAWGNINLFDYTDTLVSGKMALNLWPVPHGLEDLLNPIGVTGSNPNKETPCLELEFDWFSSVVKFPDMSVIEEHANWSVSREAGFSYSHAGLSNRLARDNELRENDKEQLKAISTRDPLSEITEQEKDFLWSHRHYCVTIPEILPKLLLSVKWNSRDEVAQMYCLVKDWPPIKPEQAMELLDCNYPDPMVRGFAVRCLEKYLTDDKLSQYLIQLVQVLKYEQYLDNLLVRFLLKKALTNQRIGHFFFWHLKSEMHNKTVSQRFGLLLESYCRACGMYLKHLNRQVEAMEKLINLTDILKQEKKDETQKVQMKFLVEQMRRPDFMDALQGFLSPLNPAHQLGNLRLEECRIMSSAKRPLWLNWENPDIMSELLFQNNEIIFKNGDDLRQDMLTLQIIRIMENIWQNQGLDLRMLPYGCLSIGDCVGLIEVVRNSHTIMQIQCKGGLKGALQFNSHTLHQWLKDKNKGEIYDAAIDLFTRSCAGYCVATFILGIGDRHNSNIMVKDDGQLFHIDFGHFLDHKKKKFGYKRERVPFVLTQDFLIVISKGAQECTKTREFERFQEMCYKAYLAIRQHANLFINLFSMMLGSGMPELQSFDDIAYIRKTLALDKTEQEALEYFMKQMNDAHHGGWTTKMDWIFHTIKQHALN

[4] = target: T2, fMet-Leu-Phe receptor (Homo sapiens, UniProt P21462); assay: Inhibition of human FPR expressed in human U-937 cells by fluorescence based ligand binding assay; type: cell-based
T2 sequence (P21462 whole entry): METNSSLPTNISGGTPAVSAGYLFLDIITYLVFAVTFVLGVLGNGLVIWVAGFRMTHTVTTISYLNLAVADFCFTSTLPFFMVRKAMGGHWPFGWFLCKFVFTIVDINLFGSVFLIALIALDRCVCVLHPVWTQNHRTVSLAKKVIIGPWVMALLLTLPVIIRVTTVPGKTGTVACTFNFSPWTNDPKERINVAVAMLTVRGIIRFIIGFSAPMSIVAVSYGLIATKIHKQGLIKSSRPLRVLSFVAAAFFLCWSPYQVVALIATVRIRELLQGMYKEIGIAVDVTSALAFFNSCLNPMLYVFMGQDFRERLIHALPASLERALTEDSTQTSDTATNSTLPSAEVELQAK

[5] = target: Vascular endothelial growth factor receptor 2 (Homo sapiens, UniProt P35968); assay: Inhibition of VEGFR2 (unknown origin)
Chain of Vascular endothelial growth factor receptor 2 (P35968 whole entry): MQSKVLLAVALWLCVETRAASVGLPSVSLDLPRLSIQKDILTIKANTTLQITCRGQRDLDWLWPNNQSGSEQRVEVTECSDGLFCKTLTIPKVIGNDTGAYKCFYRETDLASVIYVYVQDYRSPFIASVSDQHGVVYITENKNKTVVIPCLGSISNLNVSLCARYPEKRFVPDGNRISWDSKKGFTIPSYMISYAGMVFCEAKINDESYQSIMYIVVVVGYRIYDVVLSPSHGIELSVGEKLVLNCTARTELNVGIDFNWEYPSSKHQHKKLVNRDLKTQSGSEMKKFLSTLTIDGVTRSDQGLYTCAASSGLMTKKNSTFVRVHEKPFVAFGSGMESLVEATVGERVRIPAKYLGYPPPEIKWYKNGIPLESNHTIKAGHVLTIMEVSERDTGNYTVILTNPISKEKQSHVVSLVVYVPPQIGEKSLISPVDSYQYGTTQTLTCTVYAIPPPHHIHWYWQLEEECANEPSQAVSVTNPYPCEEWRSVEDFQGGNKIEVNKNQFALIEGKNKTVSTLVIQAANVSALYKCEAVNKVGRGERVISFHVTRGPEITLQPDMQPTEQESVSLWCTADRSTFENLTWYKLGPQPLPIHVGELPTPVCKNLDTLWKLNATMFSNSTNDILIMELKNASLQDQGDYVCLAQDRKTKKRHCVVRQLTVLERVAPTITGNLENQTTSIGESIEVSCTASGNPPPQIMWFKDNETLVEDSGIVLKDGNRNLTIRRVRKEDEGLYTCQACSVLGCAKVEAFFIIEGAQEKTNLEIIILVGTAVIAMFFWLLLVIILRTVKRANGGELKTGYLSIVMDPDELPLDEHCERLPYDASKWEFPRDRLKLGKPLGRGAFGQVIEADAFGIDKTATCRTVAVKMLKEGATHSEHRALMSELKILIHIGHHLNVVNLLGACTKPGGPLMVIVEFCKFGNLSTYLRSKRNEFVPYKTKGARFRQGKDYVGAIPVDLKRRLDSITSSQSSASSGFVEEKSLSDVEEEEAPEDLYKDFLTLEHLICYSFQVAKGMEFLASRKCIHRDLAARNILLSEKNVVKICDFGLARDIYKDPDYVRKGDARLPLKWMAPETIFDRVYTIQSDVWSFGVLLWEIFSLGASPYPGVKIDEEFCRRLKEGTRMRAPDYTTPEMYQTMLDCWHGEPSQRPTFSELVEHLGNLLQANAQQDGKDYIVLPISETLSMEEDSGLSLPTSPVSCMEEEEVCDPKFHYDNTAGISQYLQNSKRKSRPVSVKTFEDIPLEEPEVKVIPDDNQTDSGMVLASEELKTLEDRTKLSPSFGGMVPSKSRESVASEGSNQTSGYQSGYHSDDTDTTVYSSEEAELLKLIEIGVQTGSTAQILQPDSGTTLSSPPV

[6] = Metabolic stability in Sprague-Dawley rat assessed as half life; type: ADME
[7] = AUC in Sprague-Dawley rat at 10 mg/kg, po; type: ADME, organism-based; details: in vivo
[8] = Half life in rat; type: ADME; details: in vivo
[9] = target: T3, Platelet-derived growth factor receptor beta (Homo sapiens, UniProt P09619); assay: Inhibition of glutathione S-transferase fused PDGFbetaR (unknown origin) in 3T3 cells; type: cell-based
T3 sequence (P09619 whole entry, the tested form may be a part): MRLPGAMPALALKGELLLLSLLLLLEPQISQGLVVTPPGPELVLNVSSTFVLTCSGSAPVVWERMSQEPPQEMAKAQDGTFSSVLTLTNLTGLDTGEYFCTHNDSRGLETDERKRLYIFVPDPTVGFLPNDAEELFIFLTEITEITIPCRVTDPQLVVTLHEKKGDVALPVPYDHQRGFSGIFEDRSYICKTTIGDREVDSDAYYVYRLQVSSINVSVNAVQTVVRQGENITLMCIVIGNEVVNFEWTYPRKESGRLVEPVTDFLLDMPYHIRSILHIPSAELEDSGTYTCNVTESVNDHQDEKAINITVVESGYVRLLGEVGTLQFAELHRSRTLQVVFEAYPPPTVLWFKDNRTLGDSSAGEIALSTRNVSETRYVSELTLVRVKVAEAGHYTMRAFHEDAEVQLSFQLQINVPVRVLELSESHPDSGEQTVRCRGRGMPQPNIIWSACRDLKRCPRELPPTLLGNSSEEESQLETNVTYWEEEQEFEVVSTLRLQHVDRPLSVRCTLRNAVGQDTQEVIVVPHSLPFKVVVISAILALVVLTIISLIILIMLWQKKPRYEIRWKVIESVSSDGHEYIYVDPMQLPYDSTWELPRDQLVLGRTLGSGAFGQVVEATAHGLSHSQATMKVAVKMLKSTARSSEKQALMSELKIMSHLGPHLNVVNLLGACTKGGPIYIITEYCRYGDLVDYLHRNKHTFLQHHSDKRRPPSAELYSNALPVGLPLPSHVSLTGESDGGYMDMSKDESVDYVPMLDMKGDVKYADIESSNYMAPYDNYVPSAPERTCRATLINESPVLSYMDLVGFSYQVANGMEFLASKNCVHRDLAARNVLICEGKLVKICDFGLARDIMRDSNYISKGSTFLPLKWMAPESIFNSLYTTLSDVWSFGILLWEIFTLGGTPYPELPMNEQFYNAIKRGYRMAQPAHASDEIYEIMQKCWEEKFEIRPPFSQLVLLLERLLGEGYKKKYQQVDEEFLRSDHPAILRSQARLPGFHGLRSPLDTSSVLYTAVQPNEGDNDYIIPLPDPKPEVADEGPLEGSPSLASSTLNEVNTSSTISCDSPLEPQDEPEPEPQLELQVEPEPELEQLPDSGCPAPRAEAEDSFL

[10] = target: T3, Platelet-derived growth factor receptor beta; assay: Inhibition of PDGFRbeta (unknown origin) by enzymatic assay
[11] = target: Lysophosphatidic acid receptor 1 (Homo sapiens, UniProt Q92633); assay: Antagonist activity at human LPA1 receptor expressed in CHO cells assessed as inhibition of LPA-induced calcium mobilization pretreated for 15 mins followed by LPA stimulation by FLIPR analysis; type: functional, cell-based
Chain of Lysophosphatidic acid receptor 1 (Q92633 whole entry): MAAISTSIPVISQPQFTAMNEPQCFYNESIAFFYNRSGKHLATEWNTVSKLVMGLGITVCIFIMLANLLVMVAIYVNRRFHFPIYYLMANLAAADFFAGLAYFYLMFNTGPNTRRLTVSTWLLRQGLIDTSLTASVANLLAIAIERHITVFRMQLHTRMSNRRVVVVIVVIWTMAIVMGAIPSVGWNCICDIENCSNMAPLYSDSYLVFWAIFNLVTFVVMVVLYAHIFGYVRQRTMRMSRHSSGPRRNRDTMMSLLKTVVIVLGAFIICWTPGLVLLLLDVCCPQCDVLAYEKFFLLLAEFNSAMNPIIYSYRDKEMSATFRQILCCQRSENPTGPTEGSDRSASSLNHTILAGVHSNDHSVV

[12] = in vivo; details: rat, po, 5 mg/kg
Description: Half life in rat at 5 mg/kg, po

[13] = Oral bioavailability in rat at 5 mg/kg; type: ADME, organism-based; details: in vivo
[14] = Clearance in rat at 1 mg/kg, iv; type: ADME, organism-based; details: in vivo
[15] = target: Voltage-gated inwardly rectifying potassium channel KCNH2 (Homo sapiens, UniProt Q12809); assay: Inhibition of hERG
[16] = target: T3, Platelet-derived growth factor receptor beta; assay: Inhibition of PDGFRbeta (unknown origin) by DiscoverX KINOMEscan assay
[17] = Clearance in rat at 5 mg/kg, iv; type: ADME, organism-based; details: in vivo
[18] = Oral bioavailability in rat; type: ADME, organism-based; details: in vivo

- Ki [1]: 3.9 nM
SMILES: CCCCOC(=O)NS(=O)(=O)c1sc(CC(C)C)cc1-c1ccc(Cn2c(CC)nc3c(C)cc(C)nc32)cc1

- IC50 [2]: > 1400 nM
SMILES: Cc1cc(NNC(=O)Nc2cc(Cl)nc(Cl)c2)ncc1-c1cn(C)nc1C

- IC50 [3]: 0.1 nM
SMILES: O=S(=O)(Nc1cncc(-c2ccc3nccc(-c4ccncc4)c3c2)c1)c1ccccc1F

- IC50 [4]: 32 nM
SMILES: Cc1c(-c2ccccc2)nc2ccc(Br)cc2c1C(=O)NC[C@H](CC(=O)O)c1ccccc1Cl

- IC50 [3]: 2 nM
SMILES: O=C1NC(=O)C(Cc2ccc3nccc(-c4ccncc4)c3c2)S1 (stereo not given)

- IC50 [5]: < 1 nM
SMILES: COc1cc2c(Oc3ccc4[nH]c(C)cc4c3F)ccnc2cc1OCC1(N)CC1

- half-life [6]: 4.8 h
- AUC [7]: 6406 h/ng/mL
- half-life [8]: 4.8 h
- IC50 [9]: 100 nM
- IC50 [5]: 110 nM
- IC50 [10]: 25 nM
SMILES: COC(=O)c1ccc2c(c1)NC(=O)/C2=C(\Nc1ccc2c(c1)CCN2C(=O)CN1CCOCC1)c1ccccc1

- EC50 [11]: 6.7 nM
SMILES: Cc1noc(-c2ccc(-c3ccc(C4(C(=O)O)CC4)cc3)cc2)c1NC(=O)O[C@H](C)c1ccccc1 [BMS-986020]

- half-life [12]: 1.9 h
- bioavailability [13]: > 100%
- clearance [14]: 15 mL/min/kg
SMILES: O=c1nc(OC[C@@H]2COCCO2)cc2n1CCc1cc(C#CC3CC3)ccc1-2 [GLPG-1205]

SMILES: COC(=O)c1ccc2c(c1)NC(=O)/C2=C(\Nc1ccc(N(C)C(=O)CN2CCN(C)CC2)cc1)c1ccccc1 [NINTEDANIB]
- IC50 [15]: 2600 nM

- IC50 [16]: 7.06 nM
SMILES: CNC(=O)c1cc2c(Oc3ccc(NC(=S)NC(=O)Cc4ccccc4)cc3F)ccnc2cc1OC [TAS-115]

- clearance [17]: 11.5 mL/min/kg
- bioavailability [18]: 34%
SMILES: CCc1nc2c(C)cc(N3CCN(CC(=O)N4CC(O)C4)CC3)cn2c1N(C)c1nc(-c2ccc(F)cc2)c(C#N)s1 [ZIRITAXESTAT]
